Data as given in patent publication US20180370912A1, “COMPOUNDS AND METHODS FOR TREATING DISEASES MEDIATED BY PROTEIN DISULFIDE ISOMERASE” (Beth Israel Deaconess Medical Center, Inc., priority 2017, published 2018).
One block for each compound: values may come before it.

How the values were obtained:
[1] = tested on: Washed human platelets; experiment: Platelet aggregation, light transmission aggregometry; format: cell-based; settings: for inhibition of SFLLRN-induced platelet aggregation: 30 μM, 3 μM SFLLRN, FIG. 2d; for reversibility of inhibition of platelet aggregation after washing: platelets incubated with antagonist, washed, then stimulated with SFLLRN
Experimental: Platelet aggregation was performed as previously described in Jasuja, R. et al., J Clin Invest 122, 2104-2113 (2012). Briefly, platelet rich plasma (PRP) was obtained from healthy volunteers. Platelets were isolated by centrifugation at 2,000 g and resuspended in Hepes-Tyrode buffer (134 mM […], 2.9 mM KCl, 12 mM sodium bicarbonate, 20 mM HEPES, 1 mM magnesium chloride, 5 mM glucose [pH 7.3]). Washed human platelets (2.5×10^8 platelets/mL) were incubated with the indicated concentrations of bepristats and PACMA-31 at 37° C. for 20 minutes and then exposed to 3 μM PAR-1 activating peptide SFLLRN. Aggregation was measured using a Chrono-Log 680 Aggregation System.

[2] = molecular target: T1, PDI domain fragments (a, a′, ab, abb′, b′xa′) (Homo sapiens, UniProt P07237); experiment: Insulin reductase assay of isolated PDI domains; format: biochemical; settings: FIG. 4a
T1 construct: a (residues 1-117), a′ (residues 342-462), ab (residues 1-218), abb′ (residues 1-331), or b′xa′ (residues 219-462); His; made in house; host or cells: Escherichia coli Origami B (DE3), pET-15b
Experimental: (§1) The thiol isomerase-catalyzed reduction of insulin was assayed by measuring the increase in turbidity as detected at an optical density (OD) of 650 nm using a Spectramax M3 (Molecular Devices, Sunnyvale, Calif.). The validation assay consisted of 175 nM of PDI in a solution containing 100 mM potassium phosphate (pH 7.4) containing 0.2 mM bovine insulin, 2 mM EDTA, and 0.3 mM DTT (all purchased from Sigma Aldrich, St. Louis, Mo.), inhibitors were used at the concentrations indicated. The reaction was performed at 25° C. for one hour and thirty minutes. For assays of thiol isomerase selectivity, 11 nM PDI, ERp57 or Thioredoxin, or 33 nM ERpS were assayed in similar buffer conditions as described above and inhibitors were used at the indicated concentration. The reaction was performed at 37° C. for forty-five minutes. For assays of isolated domains studies, 400 nM protein was used, except for a, a′ and ab, in which 800 nM protein was used. The assay was performed in similar buffer conditions as described above. Bepristat 2a and N-(2,4-Dimethoxyphenyl)-N-(1-oxo-2-propyn-1-yl)-2-(2-thienyl)glycyl-glycine ethyl ester (PACMA-31) were used at a final concentration of 15 μM in these studies.

[3] = molecular target: T2, PDI domain fragments (a, a′, ab, abb′, b′xa′) (Homo sapiens, UniProt P07237); experiment: Insulin reductase assay of isolated PDI domains; format: biochemical; settings: FIG. 4a; remark: listed apart in the source
T2 construct: a (residues 1-117), a′ (residues 342-462), ab (residues 1-218), abb′ (residues 1-331), or b′xa′ (residues 219-462); His; made in house; host or cells: Escherichia coli Origami B (DE3), pET-15b
T2 sequence (P07237 18-348): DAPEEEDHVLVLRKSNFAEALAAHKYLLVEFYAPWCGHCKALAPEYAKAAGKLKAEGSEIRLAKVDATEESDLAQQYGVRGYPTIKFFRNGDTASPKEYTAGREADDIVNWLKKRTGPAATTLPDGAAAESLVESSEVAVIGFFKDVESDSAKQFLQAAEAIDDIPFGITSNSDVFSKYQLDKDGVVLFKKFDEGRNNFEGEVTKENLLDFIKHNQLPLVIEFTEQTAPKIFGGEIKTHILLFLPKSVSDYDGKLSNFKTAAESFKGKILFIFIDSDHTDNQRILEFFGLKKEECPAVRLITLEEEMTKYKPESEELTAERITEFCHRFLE
Experimental: as §1

[4] = molecular target: T3, PDI domain fragments (a, a′, ab, abb′, b′xa′) (Homo sapiens, UniProt P07237); experiment: Insulin reductase assay of isolated PDI domains; format: biochemical; settings: FIG. 4a; remark: listed apart in the source
T3 construct: a (residues 1-117), a′ (residues 342-462), ab (residues 1-218), abb′ (residues 1-331), or b′xa′ (residues 219-462); His; made in house; host or cells: Escherichia coli Origami B (DE3), pET-15b
T3 sequence (P07237 18-235): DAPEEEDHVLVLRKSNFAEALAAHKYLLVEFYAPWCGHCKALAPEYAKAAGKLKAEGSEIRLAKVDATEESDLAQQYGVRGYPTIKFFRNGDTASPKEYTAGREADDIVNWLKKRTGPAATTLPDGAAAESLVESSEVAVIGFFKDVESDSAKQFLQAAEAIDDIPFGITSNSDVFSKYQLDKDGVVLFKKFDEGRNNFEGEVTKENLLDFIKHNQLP
Experimental: as §1

[5] = molecular target: T4, PDI (Homo sapiens, UniProt P07237); experiment: ANS fluorescence; format: binding; settings: 100 μM inhibitor, 50 μM ANS, FIG. 4c
T4 construct: FLAG; made in house; host or cells: Escherichia coli Origami B (DE3), pET-15b
T4 sequence (P07237 18-508): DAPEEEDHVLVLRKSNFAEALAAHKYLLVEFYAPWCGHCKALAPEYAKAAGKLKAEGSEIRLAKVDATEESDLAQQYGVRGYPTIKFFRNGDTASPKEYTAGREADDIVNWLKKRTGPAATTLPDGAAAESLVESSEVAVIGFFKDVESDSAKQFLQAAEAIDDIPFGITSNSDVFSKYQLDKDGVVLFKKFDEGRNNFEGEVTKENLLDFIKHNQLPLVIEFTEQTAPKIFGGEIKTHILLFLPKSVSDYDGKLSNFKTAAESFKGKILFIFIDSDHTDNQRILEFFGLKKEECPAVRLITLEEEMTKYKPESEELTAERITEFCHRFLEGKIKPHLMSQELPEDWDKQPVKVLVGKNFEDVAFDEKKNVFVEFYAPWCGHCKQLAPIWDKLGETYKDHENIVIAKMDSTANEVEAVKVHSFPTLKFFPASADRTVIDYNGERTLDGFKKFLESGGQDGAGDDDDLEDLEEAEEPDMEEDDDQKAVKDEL
Experimental: The binding of 1-Anilinonaphthalene-8-Sulfonic Acid (ANS) to full length PDI and the different domains of PDI was assessed by incubating 5 μM of protein in the presence or absence of 100 μM of the indicated inhibitors in 175 μL of TBS at 37° C. for 1 hour. Subsequently, 50 μM of ANS was added and the mixture was incubated in the dark at 25° C. for 20 minutes. Fluorescence spectrum (Ex: 370 nm, Em: 400-700 nm) was measured in a 384-well plate. The experiment was performed in triplicate.

[6] = molecular target: T4, PDI; experiment: Di-eosin-GSSG disulfide reductase assay; format: biochemical
Experimental: The probe di-eosin glutathione disulfide, di-eosin-GSSG, was prepared as previously described in Raturi, A., Vacratsis, P. O., Seslija, D., Lee, L. & Mutus, B., Biochem J 391, 351-357 (2005). Reductase activity of purified thiol isomerases and PDI domains was monitored in a 96-well fluorescence plate format. PDI, AGHA-PDI, ERpS, ERp57, ERp72 and PDI domains were assayed at 50 nM in the presence or absence of the indicated small molecules, peptides or cathepsin G. The assay included 100 mM potassium phosphate (pH 7.4) containing 2 mM EDTA, 5 μM DTT and 150 nM of the di-eosin GSSG probe. The increase in fluorescence was determined for 20 minutes by excitation at 520 nm and emission at 550 nm in a Synergy Biotek 4. The reduction of 150 nM di-eosin-GSSG by 5 μM DTT in the presence or absence of mentioned small molecules, peptides or proteins served as a negative control.
Michaelis Menten analysis was assayed using PDI at 20 nM and small molecules, peptides or cathepsin G at concentrations causing maximal augmentation under similar buffer conditions as described above. 8-point response curves were generated using a range of different di-eosin-GSSG concentrations (50-5000 nM). Enzyme kinetics analysis was performed using Graphpad Prism 5.0.

[7] = molecular target: T4, PDI; experiment: Insulin reductase (turbidimetric) assay; format: biochemical; settings: for selectivity for PDI among thiol isomerases: versus ERp5, ERp57, thioredoxin, concentrations 10-fold higher than IC50
Experimental: as §1
Reversibility studies were performed by incubating 20 μM PDI with 6 μM of bepristat 2a or 300 μM of PACMA-31. After 30 minute equilibration; the PDI-inhibitor mixture was diluted 100 fold into the above mentioned assay buffer. The reductase activity of these mixtures were compared to PDI in the presence or absence of 6 μM bepristat 2a or 0.06 μM bepristat 2a or 300 μM PACMA-31 or 3 μM PACMA-31.

increase in ANS fluorescence upon incubation with PDI [5]: failed to block ANS fluorescence
Compound: C#CC(=O)N(c1ccc(OC)cc1OC)C(C(=O)NCC(=O)OCC)c1cccs1 (stereo not shown) [PACMA-31, N-(2,4-Dimethoxyphenyl)-N-(1-oxo-2-propyn-1-yl)-2-(2-thienyl)glycyl-glycine ethyl ester, reference compound]
inhibition of SFLLRN-induced platelet aggregation [1]: inhibited platelet aggregation | reversibility of inhibition of platelet aggregation after washing [1]: irreversibly inhibited | insulin reductase activity of b′xa′ domains [2]: inhibited reductase activity of all PDI fragments | insulin reductase activity of isolated a domain [2]: inhibited reductase activity of all PDI fragments | insulin reductase activity of isolated a′ domain [2]: inhibited reductase activity of all PDI fragments | insulin reductase activity of abb′ domains [3]: inhibited reductase activity of all PDI fragments | insulin reductase activity of ab domain [4]: inhibited reductase activity of all PDI fragments | cleavage of di-eosin-GSSG probe by PDI (reductase activity at catalytic cysteines) [6]: blocked PDI-mediated cleavage of di-eosin-GSSG | selectivity for PDI among thiol isomerases [7]: not entirely selective for PDI among thiol isomerases

Compound: CCOC(=O)c1c(CNCCN(CC)CC)n(-c2ccccc2)c2cc(Br)c(O)cc12 [bepristat 2a]
inhibition of SFLLRN-induced platelet aggregation [1]: inhibited platelet aggregation | reversibility of inhibition of platelet aggregation after washing [1]: restored following washing | insulin reductase activity of b′xa′ domains [2]: blocked activity | insulin reductase activity of isolated a domain [2]: did not have activity | insulin reductase activity of isolated a′ domain [2]: did not have activity | insulin reductase activity of abb′ domains [3]: blocked activity | insulin reductase activity of ab domain [4]: did not have activity | increase in ANS fluorescence upon incubation with PDI [5]: interfered with the increase in ANS fluorescence | cleavage of di-eosin-GSSG probe by PDI (reductase activity at catalytic cysteines) [6]: enhanced cleavage of the di-eosin-GSSG probe by PDI | apparent kcat ([6]; Michaelis-Menten analysis, incubation with compound, 1135 min^−1 without bepristats): 33.25 s⁻¹ | fluorescence of di-eosin-GSSG in the absence of PDI ([6]; no PDI): did not affect | reversibility of PDI inhibition in the insulin reductase assay ([7]; 100-fold dilution of 6 μM bepristat 2a or 300 μM PACMA-31, FIG. 9): readily reversed by dilution to a subinhibitory concentration | inhibitory activity in the insulin turbidimetric assay compared with quercetin-3-rutinoside, PACMA-31 and bacitracin ([7]; FIG. 1e): more potent inhibitory activity | IC50 ([7]; insulin reductase assay, FIG. 1b): ~1200 nM | selectivity for PDI among thiol isomerases [7]: selective among vascular thiol isomerases
